Results reported in patent publication US20250296955A1, “PIN1 TARGETING COMPOUNDS AND DEGRADERS AND METHODS THEREOF” (The Regents of the University of California, priority 2024, published 2025).
Like-named read-outs stand apart in the source and are kept apart here. Where a SMILES comes first, the peptide text is derived from it. [ ]: non-standard residue; d: D form. The star is where a group is joined. Phe(4-NO2) = N[C@@H](Cc1ccc([N+](=O)[O-])cc1)C(=O)O; Trp(5-OH) = N[C@@H](Cc1c[nH]c2ccc(O)cc12)C(=O)O; pY = N[C@@H](Cc1ccc(OP(=O)(O)O)cc1)C(=O)O; Phe(3-CN) = N#Cc1cccc(C[C@H](N)C(=O)O)c1; Phe(4-CN) = N#Cc1ccc(C[C@H](N)C(=O)O)cc1; mTyr = N[C@@H](Cc1cccc(O)c1)C(=O)O; Pip = O=C(O)[C@@H]1CCCCN1; ClAc = O=C(CCl)*

Legend:
[1] = target: T1, Pin1 (Homo sapiens, UniProt Q13526); test: Denaturation thermal shift assay (SYPRO Orange); format: binding; parameters: human Pin1 (residues 1-163); made in house; host or cells: E. coli BL21 (DE3) gold pLysS
Text: (§1) Important to the success of structure activity relations studies, robust biochemical, biophysical, and cell-based assays were implemented that enabled rapid and iterative evaluations of test Pin1 targeting agents. First, the DELFIA (Dissociation-enhanced lanthanide fluorescent immunoassay) assay platform was used to derive a robust heterogeneous assay to monitor the ability of test agents to displace the binding between Pin1 and the D-Peptide (Table 1), which was obtained in a biotinylated form (FIG. 10). […] Second, for an orthogonal biophysical assay denaturation thermal shift measurements were used. Pin1 was incubated with vehicle control (buffer with 1% DMSO), or test agents at protein: ligand ratio of 1:2 (20 μM protein-40 μM compound) for 10 min at 10° C. in the presence of the fluorescent dye SYPRO Orange. The samples were gradually exposed to increasing temperature (linear gradient from 10° C. to 95° C.), causing the protein to unfold. This unfolding allowed the fluorescent dye to bind to the protein's exposed hydrophobic residues, resulting in an increase in fluorescence. The thermal shift assay measures the protein's melting temperature (Tm), which is the temperature at which the protein denatures by 50%. Ligands can affect a protein target to thermal denaturation, which could manifest in a positive or negative shift in the protein denaturation temperature (ΔTm) (Bai N, Roder H, Dickson A, & Karanicolas J (2019) Scientific Reports 9; and Kranz J K & Schalk-Hihi C (2011) Fragment-Based Drug Design: Tools, Practical Approaches, and Examples 493:277-298). Using these two assays, a series of commercially available Pin1 inhibitors were profiled (Table 1). The non-covalent agent D-peptide resulted only moderately active, with an IC50 value of ˜3 μM that closely resembled the dissociation constant for this agent determined via isothermal titration calorimetry, and the ˜ 3 μM IC50 value as reported by a fluorescence polarization assay (Pinch B J, et al. (2020) Nat Chem Biol 16(9):979-987). […] (Table 1) was observed.
Thermal shift assays for Pin1 alone and in the presence of the inhibitors were obtained with a BioRad CFX Connect Real-Time PCR Detection System. Each data point was collected in quadruplicate. Each sample was prepared using buffer 50 mM Phosphate pH 7.5, 150 mM NaCl, 1% DMSO. Protein: ligand ratio used was 1:2 (20 μM protein-40 μM compound), and SYPRO Orange was used. Incubation of the Pin1 protein with the compounds was performed at 10° C. for 10 min. Samples were then heated from 10 to 95° C. with heating increments of 0.05° C., over 30 min. Fluorescence intensity was measured within the excitation/emission ranges 470-505/540-700 nm.

[2] = target: T1, Pin1; test: DELFIA displacement assay (displacement of biotinylated D-peptide from 6His-Pin1); format: binding; parameters: human Pin1 (residues 1-163); made in house; host or cells: E. coli BL21 (DE3) gold pLysS
Text: as §1
For the reported covalent agents such as sulfopin (Dubiella C, et al. (2021) Nat Chem Biol 17(9):954-963), BJP-07-017-3 (Pinch B J, et al. (2020) Nat Chem Biol 16(9):979-987), or KPT-6566 (Campaner E, et al. (2017) Nat Commun 8:15772), a 6-h pre-incubation period was included in the DELFIA assay to allow the covalent reaction to take place. For those agents, IC50 values that fell in the low nanomolar range were observed, consistent with what was reported previously for those compounds. […] To make those determinations in a broader panel of cancer cell lines three pancreatic cancer cell lines, BxPC3, MIA-PaCa-2, and PANC-1, the breast cancer cell line MDA-MB-231, the prostate cancer cell line PC3, and the non-small cell lung cancer cell line A549 were chosen. Each cell line represents various states of KRAS activating mutations (for example BxPC3 is wt-KRAS, while MIAPaCa2 carries the KRAS(G12C) mutation, and the PANC-1 the KRAS(G12D) (Miquel M, Zhang S, & Pilarsky C (2021) Front Cell Dev Biol 9:748631), A549 is KRAS(G12S) (Wang H, et al. (2019) EBioMedicine 49:106-117), MDA-MB-231 is KRAS(G13D) (Kim R K, et al. (2015) Exp Mol Med 47(1):e137), PC3 is wt-KRAS (Bouali S, et al. (2009) Oncol Rep 21(3):731-735). Pin1 protein levels in these cell lines were established using a specific Pin1 antibody in western blot analyses (FIG. 1A). The data confirmed that all these selected human cancer cell lines expressed a significant level of Pin1 (FIG. 1A).
Each well of 96-well streptavidin-coated plates (PerkinElmer) was incubated with 100 μL of 200 nM biotinylated D-peptide for 2 h and washed 3 times with a wash solution (PerkinElmer). Subsequently, a mixture containing Pin1, and a serial dilution of the test compounds were pre-incubated for 6 h. Eu-N1-labeled anti-6x-His antibody (PerkinElmer, 1:2000) was then added to this mixture and further incubated in the biotinylated D-peptide-bound plates for another 2 h. […]

[3] = Table 2, ± SE of four replicates
[4] = Table 3, single transition, ± SE of four replicates

T1 sequence (Q13526 whole entry, the tested form may be a part): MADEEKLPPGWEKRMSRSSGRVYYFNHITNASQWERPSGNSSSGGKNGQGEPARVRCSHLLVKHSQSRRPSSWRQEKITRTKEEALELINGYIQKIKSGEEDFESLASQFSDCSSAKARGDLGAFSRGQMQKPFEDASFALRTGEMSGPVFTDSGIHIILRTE

Structure (SMILES): CN[C@@H](Cc1ccccc1)C(=O)N1CCCC[C@H]1C(=O)N[C@@H](Cc1c[nH]c2ccccc12)C(=O)N[C@@H](CCCNC(N)=O)C(N)=O [158B3] (HELM PEPTIDE1{[meF].[O=C([C@@H]1CCCCN1[*:1])[*:2]].W.[Cit].[am]}$$$$V2.0)
- ΔTm (° C.) [1, 3]: 0.62 ± 0.04 °C
- ΔTm ([1]; running text and figure legends): +0.62 °C
- IC50 [2]: > 10 µM
- IC50 ([2]; Table 2, in μM): > 10 µM

Structure (SMILES): NC(=O)[C@H](Cc1c[nH]c2ccccc12)NC(=O)[C@@H]1CCCCN1C(=O)[C@H](Cc1cccc(O)c1)NC(=O)CCl [158D9] (ClAc-[mTyr]-[Pip]-Trp-NH2)
- ΔTm (° C.) [1, 4]: −8.28 ± 0.04 °C
- IC50 ([2]; Table 3, ± SD from duplicates): 0.034 ± 0.002 µM

Structure (SMILES): NC(=O)[C@H](Cc1c[nH]c2ccccc12)NC(=O)[C@@H]1CCCCN1C(=O)[C@H](Cc1ccccc1)NC(=O)CCl [158D10] (HELM PEPTIDE1{[O=C(CCl)[*:2]].F.[O=C([C@@H]1CCCCN1[*:1])[*:2]].W.[am]}$$$$V2.0)
- ΔTm (° C.) [1, 3]: −10.40 ± 0.04 °C
- IC50 ([2]; Table 2, ± SD from duplicates): 0.146 ± 0.019 µM

Structure (SMILES): CN(C(=O)CCl)[C@@H](Cc1ccccc1)C(=O)N1CCCC[C@H]1C(=O)N[C@@H](Cc1c[nH]c2ccccc12)C(N)=O [158D11] (HELM PEPTIDE1{[O=C(CCl)[*:2]].[meF].[O=C([C@@H]1CCCCN1[*:1])[*:2]].W.[am]}$$$$V2.0)
- ΔTm (° C.) [1, 3]: −10.66 ± 0.04 °C

Structure (SMILES): NC(=O)[C@H](Cc1c[nH]c2ccccc12)NC(=O)[C@@H]1CCCCN1C(=O)[C@H](Cc1ccc(OP(=O)(O)O)cc1)NC(=O)CCl [158E7] (ClAc-[pY]-[Pip]-Trp-NH2)
- ΔTm (° C.) [1, 4]: −7.08 ± 0.22 °C
- IC50 ([2]; Table 3, ± SD from duplicates): 0.327 ± 0.025 µM

Structure (SMILES): NC(=O)[C@H](Cc1c[nH]c2ccc(O)cc12)NC(=O)[C@@H]1CCCCN1C(=O)[C@H](Cc1ccccc1)NC(=O)CCl [158F9] (ClAc-Phe-[Pip]-[Trp(5-OH)]-NH2)
- ΔTm (° C.) [1, 4]: −9.99 ± 0.00 °C
- IC50 ([2]; Table 3, ± SD from duplicates): 0.135 ± 0.001 µM

Structure (SMILES): NC(=O)[C@H](Cc1c[nH]c2ccccc12)NC(=O)[C@@H]1CCCCN1C(=O)[C@H](Cc1ccc([N+](=O)[O-])cc1)NC(=O)CCl [158G2] (ClAc-[Phe(4-NO2)]-[Pip]-Trp-NH2)
- ΔTm (° C.) [1, 4]: −10.16 ± 0.04 °C
- IC50 ([2]; Table 3, ± SD from duplicates): 0.134 ± 0.013 µM

Structure (SMILES): N#Cc1cccc(C[C@H](NC(=O)CCl)C(=O)N2CCCC[C@H]2C(=O)N[C@@H](Cc2c[nH]c3ccccc23)C(N)=O)c1 [158G3] (ClAc-[Phe(3-CN)]-[Pip]-Trp-NH2)
- ΔTm (° C.) [1, 4]: −10.06 ± 0.07 °C
- IC50 ([2]; Table 3, ± SD from duplicates): 0.132 ± 0.021 µM

Structure (SMILES): N#Cc1ccc(C[C@H](NC(=O)CCl)C(=O)N2CCCC[C@H]2C(=O)N[C@@H](Cc2c[nH]c3ccccc23)C(N)=O)cc1 [158G4] (ClAc-[Phe(4-CN)]-[Pip]-Trp-NH2)
- ΔTm (° C.) [1, 4]: −9.71 ± 0.07 °C
- IC50 ([2]; Table 3, ± SD from duplicates): 0.118 ± 0.021 µM

Structure (SMILES): NC(=O)[C@H](Cc1c[nH]c2ccccc12)NC(=O)[C@@H]1CCCCN1C(=O)[C@H](Cc1ccc(O)cc1)NC(=O)CCl [158G5] (HELM PEPTIDE1{[O=C(CCl)[*:2]].Y.[O=C([C@@H]1CCCCN1[*:1])[*:2]].W.[am]}$$$$V2.0)
- ΔTm (° C.) [1, 4]: −9.29 ± 0.04 °C
- IC50 ([2]; Table 3, ± SD from duplicates): 0.119 ± 0.006 µM

Structure (SMILES): O=C(CCl)N[C@@H](Cc1ccccc1)C(=O)N1CCCC[C@H]1C(=O)NCCc1c[nH]c2cc(Cl)cc(Cl)c12 [158G6]
- share of first thermal shift peak ([1]; Table 3, percentage in brackets after first ΔTm): 70%
- share of second thermal shift peak ([1]; Table 3, percentage in brackets after second ΔTm): 30%
- ΔTm (° C.), first of two peaks ([1]; Table 3, two peaks observed, likely incomplete complex formation): +1.04 ± 0.08 °C
- ΔTm (° C.) ([1]; Table 5, only one transition given): +1.04 ± 0.08 °C
- IC50 ([2]; Table 3, ± SD from duplicates): 0.327 ± 0.018 µM
